Data: ChEMBL document CHEMBL1201862, “PubChem BioAssay data set” (2004)
Active and inactive are the calls of the source.

Assays:
[1] = biological target: Cytochrome P450 3A4 (Homo sapiens, UniProt P08684);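 further: CYP3A4 tested as one member of a cytochrome P450 panel screen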
[2] = system: BJ; assay: BJ-TERT fibroblast viability loss – cell-based, RAS-independent, luminescence, dose response (AID 1933); format: functional; conditions: Homo sapiens
[3] = system: BJ; assay: cells; format: functional, cell-based; conditions: Homo sapiens
[4] = system: BJ; assay: BJ-TERT-LT-ST fibroblast viability loss – cell-based, RAS-independent, luminescence, dose response (AID 1935); format: functional; conditions: Homo sapiens;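 further: BJ fibroblasts immortalized with TERT plus LT and ST oncogenes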
[5] = DRD fibroblast viability loss – cell-based, non-viral oncogenic, luminescence, dose response (AID 1934); format: functional; conditions: Homo sapiens
[6] = HEK-293T viability loss after treatment – luminescence, T-cell screen hits, cytotoxicity control for TCR NF-kB inhibitor project, dose response (AID 489026); format: functional, cell-based;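 further: cells exposed to compound about 14 hours before the viability readout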
[7] = biological target: T1, Carboxy-terminal domain RNA polymerase II polypeptide A small phosphatase 1 (Homo sapiens, UniProt Q9GZU7); assay: CTDSP1 inhibitors, concentration-response, biochemical, absorbance readout, ultra-high-throughput screen actives (AID 540297); format: functional
T1 sequence (Q9GZU7 whole entry): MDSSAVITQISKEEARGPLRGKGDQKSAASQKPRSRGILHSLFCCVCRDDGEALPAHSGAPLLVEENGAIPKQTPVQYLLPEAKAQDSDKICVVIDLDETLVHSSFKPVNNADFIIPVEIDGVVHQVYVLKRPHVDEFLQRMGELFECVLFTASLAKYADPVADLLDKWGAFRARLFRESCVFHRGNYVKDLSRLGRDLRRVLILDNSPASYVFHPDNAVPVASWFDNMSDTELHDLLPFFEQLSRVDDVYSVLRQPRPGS

[8] = NIH-3T3 fibroblast cytotoxicity, dose response, cytotoxicity control, cell-based, fluorescence, Alamar Blue, secondary assay (AID 2327); format: functional;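 further: NIH-3T3 mouse fibroblasts cultured with fluconazole at 8 µg/mL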
[9] = luciferase reporter signal suppression in cells – H4 neuroglioma cells, luminescence, dose response (AID 1990); format: functional, cell-based
[10] = system: Streptococcus sp. 'group A'; assay: Streptococcus pyogenes SK(-)GAS viability under kanamycin – luminescence, BacTiterGlo, confirmation, counter-screen for streptokinase expression inhibitor project, dose response (AID 1900); format: functional, organism-based
[11] = cells; format: functional, cell-based
[12] = Luminescence Cell-Based Dose Response HTS to Identify Inhibitors of 5'UTR Stem-Loop Driven Prion Protein mRNA Translation in H4 Neuroglioblastoma Cells. [Related pubchem assays: 1827 (Project Summary), 1813 (Primary HTS)]; format: functional
[13] = biological target: Beta-galactosidase (Escherichia coli, UniProt Q8VNN2); assay: PubChem AID 485352; format: functional
[14] = alpha-synuclein stem-loop luciferase translation blockers – H4 neuroglioma cells, luminescence, confirmation (AID 1988); format: functional, cell-based
[15] = fluconazole-exposed Candida albicans growth modulators – fluorescence, retest, confirmation (AID 2467); format: functional, cell-based
[16] = Trypanosoma cruzi growth suppression in host cells – NIH3T3 host cells, beta-gal luminescence, confirmation (AID 2044); format: functional, cell-based;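 further: intracellular parasites grown in NIH/3T3 mouse fibroblasts as host cells; luminescent beta-galactosidase reporter signal from transgenic T. cruzi replicating inside host cells; inhibitors lower the luminescence signal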
[17] = biological target: T2, Type-1 angiotensin II receptor (Homo sapiens, UniProt P30556); assay: antagonism of angiotensin II type 1 receptor – cell-based, uHTS hits, selectivity assay for APJ receptor antagonist project, dose response (AID 463214); format: functional;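 further: antagonist potency against angiotensin II stimulated AT1 response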
T2 sequence (P30556 whole entry): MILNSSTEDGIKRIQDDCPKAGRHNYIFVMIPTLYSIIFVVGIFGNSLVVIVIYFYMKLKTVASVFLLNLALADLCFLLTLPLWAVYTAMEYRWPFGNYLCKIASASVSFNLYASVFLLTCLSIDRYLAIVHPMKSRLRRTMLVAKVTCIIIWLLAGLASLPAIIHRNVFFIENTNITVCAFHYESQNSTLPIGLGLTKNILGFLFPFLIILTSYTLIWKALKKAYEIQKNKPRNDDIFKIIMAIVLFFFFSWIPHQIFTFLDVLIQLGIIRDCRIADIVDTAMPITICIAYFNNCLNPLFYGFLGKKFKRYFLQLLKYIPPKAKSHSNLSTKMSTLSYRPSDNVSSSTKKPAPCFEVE

[18] = cells; format: functional, cell-based; remark: listed apart in the source
[19] = NIH3T3 cell viability loss – ATP luminescence, mouse fibroblasts, counter-screen, dose response (AID 2010); format: functional, cell-based;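 further: cells exposed to compound for about 90 hours before reading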
[20] = system: Streptococcus; assay: GAS UMAA2166 growth inhibition – luminescence, BacTiterGlo, counter-screen for streptokinase expression inhibitor project, dose response (AID 1915); format: functional, organism-based;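 further: potency for reduction of bacterial viability or growth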
[21] = biological target: Cytochrome P450 2C19 (Homo sapiens, UniProt P33261); assay: Cytochrome panel assay with activity outcomes. Panel member name: p450-cyp2c19 Compounds with AC50 equal or less than 10 uM are considered active; format: functional; conditions: read-out: AC50
[22] = system: Vero; assay: cells; format: functional, cell-based; conditions: Chlorocebus sabaeus
[23] = system: Vero; assay: cells; format: functional; conditions: Chlorocebus sabaeus
[24] = reduction of Shn3 3'UTR-driven luciferase in osteoblasts – cell-based, Clone20 osteoblasts, firefly luciferase, cherry-picked, dose response (AID 624132); format: functional;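 further: firefly luciferase luminescence from reporter carrying the Shn3 3'UTR in osteoblasts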
[25] = loss of viability in HepG2 cells – cell-based, CellTiter-Glo, cherry-picked, cytotoxicity control for Shn3 inhibitor project, dose response (AID 624134); format: functional
[26] = non-specific 3'UTR reporter inhibition in Clone20-Shn3RL – cell-based, Renilla luciferase, cherry-picked, counter-screen for Shn3 inhibitor project, dose response (AID 624133); format: functional
[27] = biological target: T3, Cytochrome P450 1A2 (Homo sapiens, UniProt P05177);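 further: PubChem cytochrome P450 panel assay, CYP1A2 panel member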
T3 sequence (P05177 whole entry): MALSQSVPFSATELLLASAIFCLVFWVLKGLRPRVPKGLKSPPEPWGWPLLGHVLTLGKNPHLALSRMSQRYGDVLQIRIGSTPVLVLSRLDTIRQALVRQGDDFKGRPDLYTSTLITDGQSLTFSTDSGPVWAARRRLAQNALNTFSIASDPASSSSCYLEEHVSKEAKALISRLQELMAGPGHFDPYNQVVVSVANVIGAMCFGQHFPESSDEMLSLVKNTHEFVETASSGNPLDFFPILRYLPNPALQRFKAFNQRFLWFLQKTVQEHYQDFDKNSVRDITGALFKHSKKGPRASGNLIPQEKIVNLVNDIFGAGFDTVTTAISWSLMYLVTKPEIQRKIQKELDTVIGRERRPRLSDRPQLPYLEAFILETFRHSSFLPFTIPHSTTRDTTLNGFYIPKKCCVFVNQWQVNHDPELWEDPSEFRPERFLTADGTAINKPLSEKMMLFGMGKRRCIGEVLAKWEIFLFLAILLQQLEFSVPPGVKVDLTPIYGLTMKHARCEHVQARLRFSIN

[28] = biological target: Cytochrome P450 2C9 (Homo sapiens, UniProt P11712)
[29] = biological target: T4, High affinity choline transporter 1 (Homo sapiens, UniProt Q9GZV3); assay: human choline transporter blockers, potency – cell-based, 5-point CRC, membrane potential dye, dose response (AID 504840); format: functional
T4 sequence (Q9GZV3 whole entry): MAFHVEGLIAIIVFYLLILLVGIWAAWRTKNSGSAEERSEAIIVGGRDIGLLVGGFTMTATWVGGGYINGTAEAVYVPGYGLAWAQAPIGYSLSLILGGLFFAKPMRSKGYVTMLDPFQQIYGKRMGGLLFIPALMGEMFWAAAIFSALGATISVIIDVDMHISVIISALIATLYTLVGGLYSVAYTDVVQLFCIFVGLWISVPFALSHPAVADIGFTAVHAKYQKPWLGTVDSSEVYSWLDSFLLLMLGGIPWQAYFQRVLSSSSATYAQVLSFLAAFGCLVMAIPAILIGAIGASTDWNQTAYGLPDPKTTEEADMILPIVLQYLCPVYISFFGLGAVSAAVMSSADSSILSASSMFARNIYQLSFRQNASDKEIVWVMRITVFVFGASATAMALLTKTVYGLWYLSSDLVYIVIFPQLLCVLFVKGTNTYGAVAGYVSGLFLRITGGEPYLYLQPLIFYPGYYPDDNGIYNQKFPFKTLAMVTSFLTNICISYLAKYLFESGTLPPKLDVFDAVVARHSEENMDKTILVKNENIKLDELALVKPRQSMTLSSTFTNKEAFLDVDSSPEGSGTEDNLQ

[30] = biological target: T5, Methionyl-tRNA synthetase, putative (Trypanosoma brucei brucei, UniProt Q38C91); format: functional, Trypanosoma brucei brucei strain 927/4 GUTat10.1
T5 sequence (Q38C91 whole entry): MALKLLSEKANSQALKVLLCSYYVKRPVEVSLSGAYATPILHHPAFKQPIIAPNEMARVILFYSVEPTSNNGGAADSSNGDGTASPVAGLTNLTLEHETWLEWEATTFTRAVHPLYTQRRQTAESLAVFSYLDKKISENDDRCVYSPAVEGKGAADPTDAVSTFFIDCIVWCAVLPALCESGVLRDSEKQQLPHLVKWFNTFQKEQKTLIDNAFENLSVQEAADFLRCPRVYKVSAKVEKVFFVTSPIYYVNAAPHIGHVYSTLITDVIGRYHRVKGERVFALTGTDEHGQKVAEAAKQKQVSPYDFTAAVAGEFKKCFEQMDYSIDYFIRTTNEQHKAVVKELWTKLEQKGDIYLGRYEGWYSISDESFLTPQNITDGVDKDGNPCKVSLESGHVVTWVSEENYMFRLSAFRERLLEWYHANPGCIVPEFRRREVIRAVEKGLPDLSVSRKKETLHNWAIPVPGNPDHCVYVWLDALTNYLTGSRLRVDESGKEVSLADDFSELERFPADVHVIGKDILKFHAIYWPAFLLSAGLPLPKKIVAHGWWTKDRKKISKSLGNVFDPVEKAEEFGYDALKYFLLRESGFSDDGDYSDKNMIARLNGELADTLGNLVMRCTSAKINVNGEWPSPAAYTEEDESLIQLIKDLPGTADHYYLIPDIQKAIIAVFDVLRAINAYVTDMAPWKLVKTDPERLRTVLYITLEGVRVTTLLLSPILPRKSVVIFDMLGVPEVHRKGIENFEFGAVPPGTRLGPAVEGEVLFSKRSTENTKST

[31] = Counterscreen for inhibitors of Trypanosoma brucei methionyl tRNA synthetase (MetRS): Luminescence-based cell-based high throughput dose response assay to identify compounds that are cytotoxic to Jurkat human T lymphocyte cells.; format: functional
[32] = biological target: T5, Methionyl-tRNA synthetase, putative; format: functional, Trypanosoma brucei brucei strain 927/4 GUTat10.1; remark: listed apart in the source
[33] = biological target: Melanocortin receptor 4 (Homo sapiens, UniProt P32245); format: functional, cell-based;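 further: Cell-based assay with luminescence read-out, confirmatory dose-response testing for agonist activity of biased ligands at MC4R; human U2OS cells with tagged receptor and beta-arrestin; potency of agonists that increase receptor coupling to beta-arrestin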
[34] = biological target: NAD-dependent protein deacylase sirtuin-5, mitochondrial (Homo sapiens, UniProt Q9NXA8); assay: sirtuin-5 deacylation blockers, concentration series – biochemical, fluorescence imaging, cherry-pick, set 5, dose response (AID 720591);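 further: desuccinylation of succinyl peptide AMC substrate read as fluorescence after trypsin release; potency of inhibitors that lower fluorescence and may act on trypsin instead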
Sequence of NAD-dependent protein deacylase sirtuin-5, mitochondrial (Q9NXA8 whole entry): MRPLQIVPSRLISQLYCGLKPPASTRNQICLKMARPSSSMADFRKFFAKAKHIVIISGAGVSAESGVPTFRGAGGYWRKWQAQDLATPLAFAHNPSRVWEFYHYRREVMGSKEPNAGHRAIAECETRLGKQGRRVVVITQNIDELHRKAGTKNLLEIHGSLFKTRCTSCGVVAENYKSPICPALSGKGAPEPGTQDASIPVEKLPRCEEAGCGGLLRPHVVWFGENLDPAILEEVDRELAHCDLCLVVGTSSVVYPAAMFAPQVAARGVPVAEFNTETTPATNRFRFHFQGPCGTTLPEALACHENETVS

Sequence of Cytochrome P450 3A4 (P08684 whole entry): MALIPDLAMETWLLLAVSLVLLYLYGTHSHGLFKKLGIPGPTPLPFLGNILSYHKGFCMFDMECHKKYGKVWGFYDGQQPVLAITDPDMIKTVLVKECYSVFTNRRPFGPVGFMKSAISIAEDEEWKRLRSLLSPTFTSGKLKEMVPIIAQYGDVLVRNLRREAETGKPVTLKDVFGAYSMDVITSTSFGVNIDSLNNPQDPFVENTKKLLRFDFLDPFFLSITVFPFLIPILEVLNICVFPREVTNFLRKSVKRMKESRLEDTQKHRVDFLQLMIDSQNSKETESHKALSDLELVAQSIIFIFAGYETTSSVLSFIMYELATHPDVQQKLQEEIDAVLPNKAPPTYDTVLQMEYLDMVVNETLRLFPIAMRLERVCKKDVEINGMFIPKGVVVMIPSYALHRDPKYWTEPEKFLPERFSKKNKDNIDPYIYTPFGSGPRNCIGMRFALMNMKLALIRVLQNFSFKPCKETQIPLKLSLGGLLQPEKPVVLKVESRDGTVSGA
Sequence of Melanocortin receptor 4 (P32245 whole entry): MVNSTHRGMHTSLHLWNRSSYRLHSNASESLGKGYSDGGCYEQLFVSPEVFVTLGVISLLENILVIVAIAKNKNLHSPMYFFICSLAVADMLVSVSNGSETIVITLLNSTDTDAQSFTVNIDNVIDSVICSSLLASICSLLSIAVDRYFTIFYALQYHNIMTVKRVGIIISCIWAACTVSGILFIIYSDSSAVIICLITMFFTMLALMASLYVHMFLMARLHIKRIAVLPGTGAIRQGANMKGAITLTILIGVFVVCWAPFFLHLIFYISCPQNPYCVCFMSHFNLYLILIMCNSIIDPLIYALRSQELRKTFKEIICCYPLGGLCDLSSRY
Sequence of Cytochrome P450 2C9 (P11712 whole entry): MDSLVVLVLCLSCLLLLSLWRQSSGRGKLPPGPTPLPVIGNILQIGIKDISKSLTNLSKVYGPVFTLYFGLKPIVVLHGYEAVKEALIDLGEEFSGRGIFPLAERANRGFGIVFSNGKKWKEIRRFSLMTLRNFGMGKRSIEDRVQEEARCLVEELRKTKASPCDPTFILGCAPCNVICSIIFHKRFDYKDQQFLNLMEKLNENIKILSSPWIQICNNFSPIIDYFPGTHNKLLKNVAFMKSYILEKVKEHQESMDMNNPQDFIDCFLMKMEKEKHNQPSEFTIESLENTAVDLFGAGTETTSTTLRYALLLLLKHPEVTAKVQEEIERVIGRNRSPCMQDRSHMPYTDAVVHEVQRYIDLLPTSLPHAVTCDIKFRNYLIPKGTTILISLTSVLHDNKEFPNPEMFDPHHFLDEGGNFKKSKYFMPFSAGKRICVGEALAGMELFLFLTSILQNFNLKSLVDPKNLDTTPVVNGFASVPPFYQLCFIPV
Sequence of Cytochrome P450 2C19 (P33261 whole entry): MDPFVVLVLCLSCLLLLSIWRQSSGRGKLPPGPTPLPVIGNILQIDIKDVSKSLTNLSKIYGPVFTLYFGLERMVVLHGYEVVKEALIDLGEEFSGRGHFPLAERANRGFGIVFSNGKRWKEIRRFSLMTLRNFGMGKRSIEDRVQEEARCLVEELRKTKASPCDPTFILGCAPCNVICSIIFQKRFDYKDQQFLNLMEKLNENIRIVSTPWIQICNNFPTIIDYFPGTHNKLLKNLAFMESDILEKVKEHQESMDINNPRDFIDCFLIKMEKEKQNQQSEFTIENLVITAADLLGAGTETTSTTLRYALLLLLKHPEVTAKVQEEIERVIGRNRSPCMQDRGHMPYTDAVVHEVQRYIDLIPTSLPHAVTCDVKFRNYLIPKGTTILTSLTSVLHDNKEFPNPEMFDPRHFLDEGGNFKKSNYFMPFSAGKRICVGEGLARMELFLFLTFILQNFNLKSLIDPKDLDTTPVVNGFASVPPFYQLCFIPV
Sequence of Beta-galactosidase (Q8VNN2 whole entry): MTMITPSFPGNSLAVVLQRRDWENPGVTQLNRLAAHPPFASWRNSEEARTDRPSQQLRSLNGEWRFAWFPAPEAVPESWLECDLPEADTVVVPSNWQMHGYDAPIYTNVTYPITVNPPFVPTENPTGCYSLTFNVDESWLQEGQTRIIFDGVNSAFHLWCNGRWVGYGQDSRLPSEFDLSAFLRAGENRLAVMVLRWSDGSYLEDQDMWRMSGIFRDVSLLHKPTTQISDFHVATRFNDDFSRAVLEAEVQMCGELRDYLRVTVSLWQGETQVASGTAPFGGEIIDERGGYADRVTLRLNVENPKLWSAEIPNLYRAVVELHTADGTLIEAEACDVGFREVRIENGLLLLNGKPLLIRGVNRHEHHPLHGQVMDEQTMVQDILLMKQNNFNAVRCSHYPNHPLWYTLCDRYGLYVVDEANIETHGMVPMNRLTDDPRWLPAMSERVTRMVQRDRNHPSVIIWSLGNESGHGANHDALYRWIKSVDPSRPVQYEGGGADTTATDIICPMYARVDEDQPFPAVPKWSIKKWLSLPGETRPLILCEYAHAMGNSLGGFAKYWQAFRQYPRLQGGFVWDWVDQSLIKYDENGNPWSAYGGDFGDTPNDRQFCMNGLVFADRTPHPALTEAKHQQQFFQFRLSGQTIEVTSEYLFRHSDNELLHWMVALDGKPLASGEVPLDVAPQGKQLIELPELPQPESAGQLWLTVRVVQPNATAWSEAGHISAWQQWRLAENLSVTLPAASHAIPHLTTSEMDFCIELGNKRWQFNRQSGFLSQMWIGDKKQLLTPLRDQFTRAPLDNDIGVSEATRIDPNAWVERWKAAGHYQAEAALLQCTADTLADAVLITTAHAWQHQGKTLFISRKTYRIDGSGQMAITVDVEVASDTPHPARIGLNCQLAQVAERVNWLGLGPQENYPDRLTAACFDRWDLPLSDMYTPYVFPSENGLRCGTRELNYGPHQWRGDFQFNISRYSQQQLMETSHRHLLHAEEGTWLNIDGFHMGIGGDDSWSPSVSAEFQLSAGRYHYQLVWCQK

O=C(c1csnn1)N1CCC2(CC1)CN(c1ccccn1)C2
AC50 [1]: inconclusive

CCOc1ccccc1C1CC(=O)Nc2cc(C)c(C)cc21 (configuration not stated)
EC50 [2]: 14 µM (active) | EC50 [3]: 53.3 µM (active) | EC50 [4]: 23.5 µM (active) | EC50 [5]: 18.1 µM (active) | IC50 [6]: > 80 µM (inactive)

C=CCn1c(COc2ccc(F)cc2)nnc1SCC(=O)NC(=O)NCc1ccco1
IC50 [7]: 15.9 µM (active)

Cc1nc(-n2nc3c(c2O)CCCC3)[nH]c(=O)c1Cc1ccccc1
EC50 [8]: > 150 µM (inconclusive) | EC50 [9]: 8.07 µM (active) | EC50 [10]: 1.14 µM (active) | EC50 [11]: 16.8 µM (active) | EC50 [12]: 14.9 µM (active) | EC50 [13]: > 40 µM (inactive) | EC50 [14]: 6.76 µM (active) | EC50 [15]: 0.554 µM (active) | EC50 [16]: 1.17 µM (active) | IC50 [17]: 14.2 µM (active) | EC50 [18]: > 350 µM (not active) | EC50 [19]: 1.06 µM (active) | EC50 [20]: 4.47 µM (active) | AC50 [21]: 25.1 µM (inconclusive) | IC50 [22]: > 25 µM (active) | CC50 [23]: 9.47 µM (active) | AC50 [24]: 4.44 µM (active) | AC50 [25]: 57 µM (active) | AC50 [26]: 2.37 µM (active) | AC50 [27]: 14.1 µM (inconclusive) | AC50 [28]: 4.47 µM (inconclusive) | AC50 [1]: inconclusive

COC(=O)C1=COC(OC2OC(CO)C(O)C(O)C2O)C2C1C=CC2(O)CO (configuration not stated)
IC50 [7]: 3.19 µM (active)

O=C1C2CCCN2C(c2cccs2)N1c1ccc(Cl)cc1 (configuration not stated)
EC50 [9]: 45.2 µM (active) | EC50 [12]: 17 µM (active) | EC50 [14]: 49.9 µM (active) | IC50 [22]: 17.1 µM (active)

COc1ccccc1CNS(=O)(=O)c1ccc(-c2cnc(C3CC3)o2)cc1
IC50 [6]: > 80 µM (inactive)

O=C(NNC(=O)c1ccc(NC(=O)c2ccccc2)cc1)Nc1ccccc1
IC50 [7]: 7.38 µM (active)

Cc1cc(C)nc(SCc2cc(=O)c(OC(=O)c3ccco3)co2)n1
IC50 [29]: 12.3 µM (active)

COc1ccccc1CNS(=O)(=O)c1ccc(-c2cc(C)no2)cc1
EC50 [2]: 1.92 µM (active) | EC50 [3]: 53.8 µM (inconclusive) | EC50 [4]: 0.83 µM (active) | EC50 [5]: 1.34 µM (active) | IC50 [6]: 79.8 µM (inactive)

Cn1c(S)nnc1CCNC(=O)c1ccccc1Cl
AC50 [1]: inconclusive

Cc1ccc(-c2c[nH]c(C(O)c3cc(Cl)cc(Cl)c3)n2)cc1 (configuration not stated)
IC50 [30]: 15.3 µM (inactive) | IC50 [31]: 74.7 µM (inactive) | IC50 [32]: 6.3 µM (active)

COc1ccccc1-c1cc(NC(C)=O)c2ncc(-c3cccc(C(F)(F)F)c3)n2c1
EC50 [33]: > 89.2 µM (inactive)

COc1ccc(-c2cc(NC(C)=O)c3ncc(-c4ccc(F)cc4)n3c2)cc1OC
EC50 [33]: > 89.2 µM (inactive)

Cc1ccc(S(=O)(=O)OCC(=O)Nc2ccc(C(=O)O)c(O)c2)cc1
IC50 [7]: 4.64 µM (active) | AC50 [34]: 4.19 µM (active)

COC(=O)c1cc2c(cn1)[nH]c1ccccc12 [BETA-CCM]
AC50 [1]: inconclusive

COc1cc2nc(N3CCN(C(=O)c4ccco4)CC3)nc(N)c2cc1OC [PRAZOSIN]
AC50 [1]: inconclusive
